Target: T1, bovine dopamine β-hydroxylase (Bos taurus, UniProt P15101)
T1 construct: Bovine DBH from adrenal glands was obtained from Sigma Chemical Co; purchased Sigma Chemicals (St Louis, Mo., USA); host or cells: bovine adrenal glands
T1 sequence (P15101 1-610): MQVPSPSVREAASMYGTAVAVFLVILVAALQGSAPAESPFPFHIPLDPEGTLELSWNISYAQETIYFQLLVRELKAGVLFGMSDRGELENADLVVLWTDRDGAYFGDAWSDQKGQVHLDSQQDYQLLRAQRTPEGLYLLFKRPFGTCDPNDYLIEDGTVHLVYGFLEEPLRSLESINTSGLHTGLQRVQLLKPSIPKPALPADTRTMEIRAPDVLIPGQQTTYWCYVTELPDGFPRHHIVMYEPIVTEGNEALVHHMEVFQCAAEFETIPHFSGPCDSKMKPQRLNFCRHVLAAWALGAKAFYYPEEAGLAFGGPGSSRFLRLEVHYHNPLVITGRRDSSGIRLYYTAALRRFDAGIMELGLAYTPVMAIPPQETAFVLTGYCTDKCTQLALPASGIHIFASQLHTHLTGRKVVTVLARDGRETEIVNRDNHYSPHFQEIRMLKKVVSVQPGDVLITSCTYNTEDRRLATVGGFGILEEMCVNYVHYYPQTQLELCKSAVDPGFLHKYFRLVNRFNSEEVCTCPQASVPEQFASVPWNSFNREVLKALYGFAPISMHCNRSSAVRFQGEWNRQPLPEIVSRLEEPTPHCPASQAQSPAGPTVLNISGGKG
Assay: DBH assay, conversion of tyramine to octopamine
Assay type: biochemical
Experimental: Bovine and human dopamine β-hydroxylase activity were assayed by measuring the conversion of tyramine to octopamine. Bovine adrenal dopamine β-hydroxylase was obtained from Sigma Chemicals (St Louis, Mo., USA) whereas human dopamine β-hydroxylase was purified from the culture medium of the neuroblastoma cell line SK-N-SH. The assay was performed at pH 5.2 and 32° C. in a medium containing 0.125 M NaAc, 10 mM fumarate, 0.5-2 μM CuSO4, 0.1 mg·ml^−1 catalase, 0.1 mM tyramine and 4 mM ascorbate. In a typical assay, 0.5-1 milliunits of enzyme were added to the reaction mixture and, subsequently, a substrate mixture containing catalase, tyramine and ascorbate was added to initiate the reaction (final volume of 200 μl). Samples were incubated with or without the appropriate concentration of nepicastat or Compound B at 37° C. for 30 to 40 minutes. The reaction was quenched by the stop solution containing 25 mM EDTA and 240 μM 3-hydroxytyramine (internal standard). The samples were analyzed for octopamine by reverse phase high pressure liquid chromatography (HPLC) using ultraviolet-detection at […]. The HPLC chromatography run was carried out at the flow rate of 1 ml·min^−1 using a LiChroCART 125-4 RP-18 column and isocratic elution with 10 mM acidic acid, 10 mM 1-heptane sulfonic acid, 12 mM tetrabutyl ammonium phosphate and 10% methanol. The remaining percent activity was calculated based on controls, corrected using internal standards and fitted to a non-linear four-parameter concentration-response curve.
DBH activity was assayed by measuring the conversion of tyramine to octopamine. […] The samples were analyzed for octopamine by reverse phase HPLC using UV detection at […]. The remaining percent activity was calculated based on controls (without inhibitor), corrected using internal standards and fitted to a non-linear 4-parameter concentration-response curve to obtain IC50 values.
An HPLC assay was used to measure DBH activity using tyramine and ascorbate as substrates. […] The samples (150 μl) were loaded to a Gilson autosampler and analyzed by HPLC using UV detection at 280 nm. […]

Structure (SMILES)	IC50 (0.1 mM tyramine, 4 mM ascorbate, pH 5.2) [nM]	potency of nepicastat relative to Compound B (bovine DBH) [fold]	potency of nepicastat relative to SKF-102698 (bovine enzyme) [fold]
Fc1cc(F)cc(Cn2cc[nH]c2=S)c1 [SKF-102698, reference compound]	67 ± 4.2	–	–
Cl.NCc1c[nH]c(=S)n1[C@H]1CCc2c(F)cc(F)cc2C1 [nepicastat, (S)-5-Aminomethyl-1-(5,7-difluoro-1,2,3,4-tetrahydronaphth-2-yl)-2,3-dihydro-2-thioxo-1H-imidazole hydrochloride]	–	3	8

Reference: US10561638B2, “Methods for treating dependence” (Biotie Therapies, Inc., priority 2007, dated 2020)
